Where two headings read alike, the source gives them in different places.

Test [1] has as its target GluN2B glutamate receptors (Homo sapiens (Human), UniProt Q05586+Q13224). The test is described as follows: Whole-cell patch clamp of mammalian cells (Ionworks Barracuda), positive allosteric modulation, GluN2B. Format: cell-based. The settings on record: for Emax: read-out: Avg Emax 2B (%). On the procedure: (§1) The measurements were performed using Ion Works Barracuda platform following this procedure:
(§2) Electrophysiological Procedures:
(§3) • a) Intracellular solution (mM): 50 mM CsCl, 90 mM CsF, 2 mM MgCl2, 5 mM EGTA, 10 mM HEPES. Adjust to pH 7.2 with CsOH. • b) Extracellular solution, HB-PS (composition in mM): NaCl, 137; KCl, 1.0; CaCl2), 5; HEPES, 10; Glucose, 10; pH adjusted to 7.4 with NaOH (refrigerated until use). • c) Holding potential: −70 mV, potential during agonist/PAM application: −40 mV. Recording Procedure: • a) Extracellular buffer will be loaded into the PPC plate wells (11 μL per well). Cell suspension will be pipetted into the wells (9 μL per well) of the PPC planar electrode. • b) Whole-cell recording configuration will be established via patch perforation with membrane currents recorded by on-board patch clamp amplifiers. • c) Two recordings (scans) will be performed. First, during pre-application of test article alone (duration of pre-application—[…]) and second, during test articles and agonist (EC20 L-glutamate and 30 μM glycine) co-application to detect positive modulatory effects of the test article. […] Potentiating Effect of Positive Allosteric Modulators (PAM) on the Channel
(§4) PAM concentration-response data will be fitted to an equation of the form: % Activation=% L-glutamate EC20+{(% MAX−% L-glutamate EC20)/[1+([Test]/EC50)^N]}, where [Test] will be the concentration of PAM (test article), EC50 will be the concentration of PAM producing half-maximal activation, N will be the Hill coefficient, % L-glutamate EC20 will be the percentage of the current Elicited with L-glutamate EC20, % MAX is the percentage of the current activated with the highest dose of PAM co-admitted with L-glutamate EC20 and % Activation will be the percentage of the current elicited with L-glutamate EC10-30 at each PAM concentration. The maximal amplitude of the evoked currents are measured and defined as Peak Current Amplitude (PCA).

For test [2], the target named is GlunN1/GluN2A glutamate receptors (Homo sapiens (Human), UniProt Q05586+Q12879). The test is described as follows: Whole-cell patch clamp of mammalian cells (Ionworks Barracuda), positive allosteric modulation, GluN1/GluN2A. Format: cell-based. On the procedure: as §1, §2, §3, §4
[3] abbreviates: % potentiation of current elicited with EC20 L-glutamate and 30 μM glycine.
Where [4] appears, read: HEK293 cells, % potentiation of current elicited with EC20 L-glutamate and 30 μM glycine, read-out: Avg Emax 2A (%).
Setting [5] is: co-application with EC20 L-glutamate and 30 μM glycine, 8-point concentration-response, read-out: Avg EC50 2B.
[6] abbreviates: HEK293 cells, co-application with EC20 L-glutamate and 30 μM glycine, 8-point concentration-response, read-out: Avg EC50 2A.

Chain of GluN2B glutamate receptors (Q13224 27-1484, other chains not shown): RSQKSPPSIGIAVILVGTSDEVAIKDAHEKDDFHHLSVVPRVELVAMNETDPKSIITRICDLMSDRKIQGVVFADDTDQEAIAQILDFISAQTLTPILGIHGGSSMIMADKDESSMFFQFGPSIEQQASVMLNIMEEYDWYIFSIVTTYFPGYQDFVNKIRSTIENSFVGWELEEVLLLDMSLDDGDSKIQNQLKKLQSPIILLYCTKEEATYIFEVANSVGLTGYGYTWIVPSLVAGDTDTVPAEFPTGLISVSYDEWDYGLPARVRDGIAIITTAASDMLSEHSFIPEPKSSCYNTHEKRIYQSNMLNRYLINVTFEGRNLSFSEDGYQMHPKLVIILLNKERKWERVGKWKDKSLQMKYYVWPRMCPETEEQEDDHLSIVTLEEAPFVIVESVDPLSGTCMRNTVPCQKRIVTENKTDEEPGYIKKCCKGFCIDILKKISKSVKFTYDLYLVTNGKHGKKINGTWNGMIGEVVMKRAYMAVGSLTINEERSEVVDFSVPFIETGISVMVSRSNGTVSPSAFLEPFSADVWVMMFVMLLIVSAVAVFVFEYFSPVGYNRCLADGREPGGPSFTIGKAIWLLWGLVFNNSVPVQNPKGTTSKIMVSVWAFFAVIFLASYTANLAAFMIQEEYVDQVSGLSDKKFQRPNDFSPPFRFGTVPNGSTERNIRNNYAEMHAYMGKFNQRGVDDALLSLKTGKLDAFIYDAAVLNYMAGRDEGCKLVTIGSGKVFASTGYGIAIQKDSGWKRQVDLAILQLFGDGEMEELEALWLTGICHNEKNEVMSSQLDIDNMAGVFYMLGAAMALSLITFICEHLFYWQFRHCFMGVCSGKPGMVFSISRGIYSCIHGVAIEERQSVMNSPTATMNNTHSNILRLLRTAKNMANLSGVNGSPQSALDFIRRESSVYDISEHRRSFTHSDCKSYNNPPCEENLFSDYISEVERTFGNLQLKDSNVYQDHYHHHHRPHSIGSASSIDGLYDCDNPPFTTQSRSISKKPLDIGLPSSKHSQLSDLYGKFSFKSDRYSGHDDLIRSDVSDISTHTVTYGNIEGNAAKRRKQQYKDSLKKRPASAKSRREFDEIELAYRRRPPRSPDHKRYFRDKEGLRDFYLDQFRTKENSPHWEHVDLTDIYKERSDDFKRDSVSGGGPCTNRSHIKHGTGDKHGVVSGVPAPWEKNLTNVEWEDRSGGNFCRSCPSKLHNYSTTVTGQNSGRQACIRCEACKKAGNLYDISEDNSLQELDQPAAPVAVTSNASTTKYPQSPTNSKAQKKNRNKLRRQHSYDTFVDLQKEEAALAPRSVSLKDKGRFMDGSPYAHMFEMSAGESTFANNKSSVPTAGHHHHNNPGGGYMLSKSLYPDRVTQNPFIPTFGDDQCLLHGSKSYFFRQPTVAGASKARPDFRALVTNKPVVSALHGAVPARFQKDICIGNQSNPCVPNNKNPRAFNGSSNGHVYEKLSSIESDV
Chain of GlunN1/GluN2A glutamate receptors (Q12879 23-1464, other chains not shown): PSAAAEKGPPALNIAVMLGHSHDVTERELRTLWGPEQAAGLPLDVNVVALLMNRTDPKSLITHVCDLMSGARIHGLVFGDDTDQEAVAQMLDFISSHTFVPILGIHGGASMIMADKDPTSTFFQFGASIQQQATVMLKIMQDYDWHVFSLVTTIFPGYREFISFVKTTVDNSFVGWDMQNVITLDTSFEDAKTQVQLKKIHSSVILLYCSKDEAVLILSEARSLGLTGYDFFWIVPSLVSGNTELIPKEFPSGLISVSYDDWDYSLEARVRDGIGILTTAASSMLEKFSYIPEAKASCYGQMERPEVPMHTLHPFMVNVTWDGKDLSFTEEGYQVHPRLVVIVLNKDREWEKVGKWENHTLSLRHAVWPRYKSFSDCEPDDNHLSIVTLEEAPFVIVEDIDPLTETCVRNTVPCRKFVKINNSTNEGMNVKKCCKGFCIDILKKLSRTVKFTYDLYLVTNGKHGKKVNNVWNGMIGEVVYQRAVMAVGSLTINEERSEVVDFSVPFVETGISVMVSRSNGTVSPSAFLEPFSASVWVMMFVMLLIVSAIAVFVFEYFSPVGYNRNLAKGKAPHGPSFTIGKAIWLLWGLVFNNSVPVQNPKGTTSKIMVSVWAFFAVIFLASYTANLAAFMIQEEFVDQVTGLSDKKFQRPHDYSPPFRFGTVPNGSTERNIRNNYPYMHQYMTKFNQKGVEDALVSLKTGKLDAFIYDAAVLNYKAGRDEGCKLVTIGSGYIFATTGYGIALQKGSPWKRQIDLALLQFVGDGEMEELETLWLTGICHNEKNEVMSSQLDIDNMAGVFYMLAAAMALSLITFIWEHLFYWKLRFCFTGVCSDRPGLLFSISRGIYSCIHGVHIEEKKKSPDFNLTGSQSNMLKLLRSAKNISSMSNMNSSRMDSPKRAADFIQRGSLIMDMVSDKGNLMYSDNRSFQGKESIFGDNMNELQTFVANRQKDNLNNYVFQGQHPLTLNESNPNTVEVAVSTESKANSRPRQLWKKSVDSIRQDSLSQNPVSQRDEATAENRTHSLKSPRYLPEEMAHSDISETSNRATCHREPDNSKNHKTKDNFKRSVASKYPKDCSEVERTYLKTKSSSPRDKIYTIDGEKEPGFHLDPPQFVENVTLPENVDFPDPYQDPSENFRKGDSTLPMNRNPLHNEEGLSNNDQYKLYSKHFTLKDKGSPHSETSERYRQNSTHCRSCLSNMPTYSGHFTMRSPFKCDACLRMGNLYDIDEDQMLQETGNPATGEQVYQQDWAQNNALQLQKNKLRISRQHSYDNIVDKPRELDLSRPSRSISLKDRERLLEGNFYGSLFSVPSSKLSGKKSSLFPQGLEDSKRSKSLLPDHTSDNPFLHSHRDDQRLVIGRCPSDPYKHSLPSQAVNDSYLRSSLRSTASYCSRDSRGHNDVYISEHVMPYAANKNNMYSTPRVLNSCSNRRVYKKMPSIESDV

Consider `C[C@H](CCC(O)c1ccccc1)[C@H]1CC[C@H]2[C@@H]3CC=C4C[C@@](C)(O)CC[C@]4(C)[C@H]3CC[C@]12C` (some centres unmarked) [Compound 356], for which the concentration for a half-maximal effect (EC50) in test [1] was determined as 923 nM; in test [2] it was 415 nM. Further, the Emax in test [1] (setting [3]) stood at 156%; in test [2] (setting [4]), 59.6%.
`CC[C@]1(O)CC[C@H]2C(=CC[C@@H]3[C@@H]2CC[C@]2(C)[C@@H]([C@H](C)CC[C@@]4(O)CCOC4)CC[C@@H]32)C1` (single isomer, unassigned) [Compound 8602]: the EC50 in test [1] came to 434 nM; in test [2], 1050 nM.
Consider `C[C@H](CCC(O)C1CCC1)[C@H]1CC[C@H]2[C@@H]3CC[C@H]4C[C@](O)(C(F)(F)F)CC[C@]4(C)[C@H]3CC[C@]12C` (some centres unmarked) [Compound 7], for which the Emax in test [1] (setting [3]) came to 484%; in test [2] (setting [4]), 516%. The EC50 turned out to be 287 nM in test [1] (setting [5]) and 300 nM in test [2] (setting [6]).
For the compound `CC[C@]1(O)CC[C@H]2[C@@H](CC[C@@H]3[C@@H]2CC[C@]2(C)[C@@H]([C@H](C)CCC4(O)CCC(C)(C)CC4)CC[C@@H]32)C1` [Compound 8963], the Emax turned out to be 55.9% in test [1] (setting [3]) and 8.4% in test [2] (setting [4]). Moreover, the EC50 in test [1] (setting [5]) and in test [2] (setting [6]) was > 10000 nM throughout.
In the case of `CC[C@]1(O)CC[C@@]2(C)C(=CC[C@H]3[C@@H]4CC[C@H]([C@H](C)CC[C@@H](O)c5ccccn5)[C@@]4(C)CC[C@@H]32)C1` [Compound 6348], the EC50 was found to be 663 nM in test [1] and 260 nM in test [2]. Moreover, the Emax in test [1] (setting [3]) came out at 133%; in test [2] (setting [4]), 79.7%.
Take `CC[C@]1(O)CC[C@H]2C(=CC[C@@H]3[C@@H]2CC[C@]2(C)[C@@H]([C@H](C)CCCC(O)C(C)(C)C)CC[C@@H]32)C1` (some centres unmarked) [Compound 10012]: the Emax in test [1] (setting [3]) is 168%; in test [2] (setting [4]) it was 154%. In addition, the EC50 came to 910 nM in test [1] (setting [5]) and 790 nM in test [2] (setting [6]).
With `C[C@H](CC[C@@H](O)C(F)(F)F)[C@H]1CC[C@H]2[C@@H]3CC[C@H]4C[C@](O)(C(F)(F)F)CC[C@]4(C)[C@H]3CC[C@]12C` [Compound 5], the results for the EC50 in test [1] and in test [2] were 260 nM and 182 nM, respectively. The Emax in test [1] (setting [3]) is 455%; in test [2] (setting [4]), 619%.
Taken in the same sequence, the figures for `CC[C@]1(O)CC[C@H]2C(=CC[C@@H]3[C@@H]2CC[C@]2(C)[C@@H]([C@H](C)CCC[C@@H](O)C(C)(C)C)CC[C@@H]32)C1` [Compound 10042] were 1880 nM, > 10000 nM, 113% and 65.9%.
For `CC[C@]1(O)CC[C@@]2(C)C(=CC[C@H]3[C@@H]4CC[C@H]([C@H](C)CC[C@H](O)Cc5ccccc5)[C@@]4(C)CC[C@@H]32)C1` [Compound 6051], the 50% effective concentration (EC50) was 1260 nM in test [1] and 500 nM in test [2]. Further, the Emax in test [1] (setting [3]) is 292%; in test [2] (setting [4]) it was 293%.
The like results for `COC[C@H]1CC[C@](O)(CC[C@@H](C)[C@H]2CC[C@H]3[C@@H]4CC[C@H]5C[C@](O)(C(F)(F)F)CC[C@]5(C)[C@H]4CC[C@]23C)CC1` [Compound 4657] were, in that order, 130 nM, 422 nM, 62.9% and 74%.
As for `CO[C@H]1CC[C@](O)(CC[C@@H](C)[C@H]2CC[C@H]3[C@@H]4CC[C@H]5C[C@](O)(C(F)(F)F)CC[C@]5(C)[C@H]4CC[C@]23C)CC1` [Compound 4585], the EC50 came to 166 nM in test [1] and 215 nM in test [2]. Also, the Emax in test [1] (setting [3]) turned out to be 123%; in test [2] (setting [4]), 72.2%.
`CC[C@]1(O)CC[C@@]2(C)C(=CC[C@H]3[C@@H]4CC[C@H]([C@H](C)CC[C@H](O)c5ccccn5)[C@@]4(C)CC[C@@H]32)C1` [Compound 6347]: the EC50 in test [1] was 311 nM; in test [2] it was 268 nM. The Emax in test [1] (setting [3]) came to 132%; in test [2] (setting [4]), 64.7%.
As to `C[C@H](CCC[C@@H](C)O)[C@H]1CC[C@H]2[C@@H]3CC[C@H]4C[C@](O)(C(F)(F)F)CC[C@]4(C)[C@H]3CC[C@]12C` [Compound 112], the values for the Emax in test [1] (setting [3]) and in test [2] (setting [4]) were 151% and 92.6%, respectively.
As for `CC(C)[C@@H](O)CC[C@@H](C)[C@H]1CC[C@H]2[C@@H]3CC[C@H]4C[C@@](C)(O)CC[C@@H]4[C@H]3CC[C@]12C` [Compound 1A75], the Emax in test [1] (setting [3]) was found to be 308%; in test [2] (setting [4]), 457%.
The like results for `C[C@H](CCC1(O)CCOCC1)[C@H]1CC[C@H]2[C@@H]3CC[C@H]4C[C@](O)(C(F)(F)F)CC[C@]4(C)[C@H]3CC[C@]12C` [Compound 11] were, in that order, 157% and 151%.
In the case of `CC[C@]1(O)CC[C@H]2C(=CC[C@@H]3[C@@H]2CC[C@]2(C)[C@@H]([C@H](C)CCC4(O)CC4)CC[C@@H]32)C1` [Compound 8245], the EC50 in test [1] stood at 268 nM; in test [2], 525 nM. The values for the Emax in test [1] (setting [3]) and in test [2] (setting [4]) were 120% and 73%, respectively.
Turning to `C[C@H](CCC1(O)CCC2(CC1)COC2)[C@H]1CC[C@H]2[C@@H]3CC[C@H]4C[C@](O)(C(F)(F)F)CC[C@]4(C)[C@H]3CC[C@]12C` [Compound 5009], the EC50 in test [1] and in test [2] was > 10000 nM throughout. The Emax came out at 14.5% in test [1] (setting [3]) and 27.5% in test [2] (setting [4]).
As for `C[C@H](CCC(O)C(C)(C)C)[C@H]1CC[C@H]2[C@@H]3CC[C@H]4C[C@](O)(C(F)(F)F)CC[C@]4(C)[C@H]3CC[C@]12C` (some centres unmarked) [Compound 3], the EC50 in test [1] was 338 nM; in test [2], 185 nM. Also, the Emax in test [1] is 532%; in test [2] (HEK293, read-out: Avg Emax 2A (%)), 556%.
With `C[C@H](CC[C@H](O)C1CCC1)[C@H]1CC[C@H]2[C@@H]3CC[C@H]4C[C@](O)(C(F)(F)F)CC[C@]4(C)[C@H]3CC[C@]12C` [7−A], the EC50 in test [1] was determined as 187 nM; in test [2], 248 nM. Moreover, the values for the Emax in test [1] (setting [3]) and in test [2] (setting [4]) were 431% and 544%, respectively.
As to `C[C@H](CCC(O)c1ccncc1)[C@H]1CC[C@H]2[C@@H]3CC=C4C[C@@](C)(O)CC[C@]4(C)[C@H]3CC[C@]12C` (some centres unmarked) [Compound 154], the Emax in test [2] (setting [4]) was 18.2%. The EC50 in test [2] (setting [6]) was > 10000 nM.
For `C[C@H](CC[C@]1(O)CCOC1)[C@H]1CC[C@H]2[C@@H]3CC=C4C[C@](O)(C(F)(F)F)CC[C@]4(C)[C@H]3CC[C@]12C` [Compound 3496], the EC50 in test [2] was 35.1 nM.
In the case of `CC[C@]1(O)CC[C@@]2(C)C(=CC[C@H]3[C@@H]4CC[C@H]([C@H](C)CC[C@H](O)c5ccc(F)cc5)[C@@]4(C)CC[C@@H]32)C1` [Compound 7146], the EC50 in test [1] amounted to 216 nM.
On the same count and under the same terms, as for `C[C@H](CC[C@@](C)(O)c1ccccc1)[C@H]1CC[C@H]2[C@@H]3CC=C4C[C@@](C)(O)CC[C@]4(C)[C@H]3CC[C@]12C` [Compound 7467], the figure is > 10000 nM; as for `C[C@H](CC[C@]1(O)CC[C@H](C)CC1)[C@H]1CC[C@H]2[C@@H]3CC[C@H]4C[C@](O)(C(F)(F)F)CC[C@]4(C)[C@H]3CC[C@]12C` [Compound 3877], 512 nM.

Source of the values: US11149054B2, “Oxysterols and methods of use thereof” (Sage Therapeutics, Inc., priority 2016, dated 2021).
